Here are results for 23 compounds from ChEMBL document CHEMBL1177670 (Bioorg Med Chem, 2010).

Activity calls are given as the source filed them. The rule behind the calls is not given here. Some results are limits rather than exact numbers.

By Ki is commonly meant the equilibrium dissociation constant of an inhibitor or competing ligand from its target.

The target of assay [1] is T1, D(4) dopamine receptor (Homo sapiens, UniProt P21917).
T1 sequence (P21917 whole entry): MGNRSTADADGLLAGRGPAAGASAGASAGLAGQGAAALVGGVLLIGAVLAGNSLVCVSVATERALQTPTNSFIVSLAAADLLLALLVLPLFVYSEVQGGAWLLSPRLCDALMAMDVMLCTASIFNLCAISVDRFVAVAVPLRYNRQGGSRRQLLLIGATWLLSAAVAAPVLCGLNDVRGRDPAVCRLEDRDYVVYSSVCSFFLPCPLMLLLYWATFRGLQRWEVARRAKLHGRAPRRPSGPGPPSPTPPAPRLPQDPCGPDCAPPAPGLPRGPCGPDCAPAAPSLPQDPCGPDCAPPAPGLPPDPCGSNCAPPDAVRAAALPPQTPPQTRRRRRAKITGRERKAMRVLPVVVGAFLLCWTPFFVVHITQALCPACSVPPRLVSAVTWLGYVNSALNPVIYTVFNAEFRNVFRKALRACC
Nature of the assay: biochemical.

Assay [2] concerns the target T2, D(2) dopamine receptor (Homo sapiens, UniProt P14416). The assay can be described thus: biochemical.
The target in assay [3] is T3, D(3) dopamine receptor (Homo sapiens, UniProt P35462). The assay can be described thus: biochemical.
Assay [4] addresses T2, D(2) dopamine receptor. The assay can be described thus: Antagonist at human dopamine D2 long receptor expressed in HEK293 cells assessed as inhibition of forskolin-induced adenylyl cyclase activity at 10 nM after 20 mins by spectrophotometric analysis in presence of quinpirole. The assay is classed as functional, cell-based.
Assay [5] addresses T2, D(2) dopamine receptor.
Assay [6] deals with T1, D(4) dopamine receptor.
The target of assay [7] is T4, Sigma non-opioid intracellular receptor 1 (Cavia porcellus, UniProt Q60492).
Description: (§1) Displacement of [3H](+)-pentazocine from sigma 1 receptor in guinea pig brain homogenates after 1 hr by liquid scintillation counting
The target of assay [8] is T3, D(3) dopamine receptor.
In assay [9] the target is T4, Sigma non-opioid intracellular receptor 1. The assay can be described thus: biochemical.
Description: as §1

T3 sequence (P35462 whole entry): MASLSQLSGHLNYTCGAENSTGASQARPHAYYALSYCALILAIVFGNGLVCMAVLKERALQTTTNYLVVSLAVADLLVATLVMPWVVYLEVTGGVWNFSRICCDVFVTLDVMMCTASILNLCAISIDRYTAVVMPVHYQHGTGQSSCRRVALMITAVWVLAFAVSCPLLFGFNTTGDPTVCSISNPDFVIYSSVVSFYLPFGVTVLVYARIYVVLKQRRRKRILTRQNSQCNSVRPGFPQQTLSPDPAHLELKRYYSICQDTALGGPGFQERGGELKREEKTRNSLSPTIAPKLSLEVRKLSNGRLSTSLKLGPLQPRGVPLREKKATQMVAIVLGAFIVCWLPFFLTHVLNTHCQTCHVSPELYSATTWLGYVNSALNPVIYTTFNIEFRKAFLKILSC
T4 sequence (Q60492 whole entry): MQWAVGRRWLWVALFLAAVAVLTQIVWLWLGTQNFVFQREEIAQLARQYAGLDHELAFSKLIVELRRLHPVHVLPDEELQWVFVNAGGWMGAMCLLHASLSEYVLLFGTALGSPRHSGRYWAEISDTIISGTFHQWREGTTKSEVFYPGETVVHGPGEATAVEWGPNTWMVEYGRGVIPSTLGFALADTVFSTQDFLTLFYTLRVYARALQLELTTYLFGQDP
T2 sequence (P14416 whole entry): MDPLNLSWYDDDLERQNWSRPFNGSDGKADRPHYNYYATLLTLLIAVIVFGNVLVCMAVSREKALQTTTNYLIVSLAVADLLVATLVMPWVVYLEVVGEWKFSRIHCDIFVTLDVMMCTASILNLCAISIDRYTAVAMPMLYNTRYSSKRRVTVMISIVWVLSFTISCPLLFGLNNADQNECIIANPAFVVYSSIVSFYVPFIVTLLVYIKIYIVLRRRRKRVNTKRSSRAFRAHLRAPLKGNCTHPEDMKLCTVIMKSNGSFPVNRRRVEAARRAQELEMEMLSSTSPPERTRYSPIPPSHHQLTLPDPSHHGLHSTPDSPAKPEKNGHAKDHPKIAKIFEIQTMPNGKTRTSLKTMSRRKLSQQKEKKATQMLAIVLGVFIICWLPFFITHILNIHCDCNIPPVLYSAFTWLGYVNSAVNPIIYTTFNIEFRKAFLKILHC

Take `CN1CN(c2ccccc2)C2(CCN(Cc3coc4ccccc34)CC2)C1=O`: the inhibition constant Ki at D(4) dopamine receptor [1] was 492 nM; at D(2) dopamine receptor [2] it was 7.1 nM; on D(3) dopamine receptor [3] it was 2.1 nM.

In the case of `OC1(c2ccc(Br)cc2)CCN(Cc2c[nH]c3ncccc23)CC1`, the results for the Ki at D(4) dopamine receptor [1], on D(2) dopamine receptor [2] and at D(3) dopamine receptor [3] were 620 nM, 212 nM and 2980 nM, respectively.

As for `COc1cccc2[nH]cc(CN3CCC(O)(c4ccc(I)cc4)CC3)c12`, the outcome at D(2) dopamine receptor [4] was Active. Further, the inhibition constant Ki at D(3) dopamine receptor [3] amounted to 122 nM.

For `COc1ccc2[nH]cc(CN3CCC(O)(c4ccc(I)cc4)CC3)c2c1`, the values for the inhibitory constant (Ki) at D(4) dopamine receptor [1], on D(2) dopamine receptor [2] and on D(3) dopamine receptor [3] were 129 nM, 0.9 nM and 100 nM, respectively. In addition, the outcome at D(2) dopamine receptor [4] was Active.

For the compound `COc1cccc2[nH]cc(CN3CCC(O)(c4ccc(Br)cc4)CC3)c12`, the Ki on D(2) dopamine receptor [5] came to 2.3 nM; at D(4) dopamine receptor [6], 840 nM; in assay [7], 2560 nM; on D(3) dopamine receptor [8], 190 nM.

On to `OC1(c2ccc(Cl)cc2)CCN(Cc2c[nH]c3ccccc23)CC1`, for which the inhibition constant (Ki) amounted to 449 nM at D(4) dopamine receptor [6] and 104 nM at D(3) dopamine receptor [8].

As to `OC1(c2ccc(I)cc2)CCN(Cc2coc3ccccc23)CC1`, the inhibition constant (Ki) at D(2) dopamine receptor [2] is 2.4 nM.

At D(2) dopamine receptor [2], `OC1(c2ccc(I)cc2)CCN(Cc2c[nH]c3ccccc23)CC1` registered an inhibition constant (Ki) of 3.8 nM.

`OC1(c2ccc(Br)cc2)CCN(Cc2c[nH]c3ccccc23)CC1`: the Ki worked out at 4.8 nM on D(2) dopamine receptor [5], 652 nM on D(4) dopamine receptor [6], 12.1 nM in [7] and 110 nM at D(3) dopamine receptor [8].

For `O=C1N(CCF)CN(c2ccccc2)C12CCN(Cc1coc3ccccc13)CC2`, the Ki at D(4) dopamine receptor [1] amounted to 945 nM; at D(2) dopamine receptor [2], 8 nM; at D(3) dopamine receptor [3] it was 9.3 nM.

`OC1(c2ccc(Br)cc2)CCN(Cc2coc3ccccc23)CC1`: the values for the Ki at D(2) dopamine receptor [2] and on D(3) dopamine receptor [3] were 6.6 nM and 10.9 nM, respectively.

`OC1(c2ccc(Br)cc2)CCN(Cc2cc3ccccc3o2)CC1` registered a Ki at D(4) dopamine receptor [1] of 254 nM.

As to `COc1cccc2[nH]cc(CN3CCC(O)(c4ccc(Cl)cc4)CC3)c12`, the Ki was 4.2 nM at D(2) dopamine receptor [5], greater than 2000 nM at D(4) dopamine receptor [6], greater than 5000 nM in assay [7] and 250 nM at D(3) dopamine receptor [8].

With `OC1(c2ccc(Br)cc2)CCN(Cc2c[nH]c3ccc(OCCF)cc23)CC1`, the Ki at D(4) dopamine receptor [1] stood at 344 nM; at D(3) dopamine receptor [3], 188 nM.

`COc1ccc2[nH]cc(CN3CCC(O)(c4ccc(Cl)cc4)CC3)c2c1`: the Ki at D(2) dopamine receptor [5] is 4.2 nM; at D(4) dopamine receptor [6] it was greater than 3500 nM; in assay [7], 242 nM; at D(3) dopamine receptor [8], 204 nM.

With `OC1(c2ccc(I)cc2)CCN(Cc2cc3ccccc3o2)CC1`, the inhibition constant Ki came to 245 nM on D(4) dopamine receptor [1] and 49 nM on D(3) dopamine receptor [3].

In the case of `O=C1N(Cc2cn(CCF)nn2)CN(c2ccccc2)C12CCN(Cc1coc3ccccc13)CC2`, the inhibition constant (Ki) on D(4) dopamine receptor [1] is 978 nM; at D(2) dopamine receptor [2], 2 nM; at D(3) dopamine receptor [3], 0.9 nM.

As for `OC1(c2ccc(I)cc2)CCN(Cc2c[nH]c3ncccc23)CC1`, the Ki on D(4) dopamine receptor [1] worked out at 634 nM; on D(2) dopamine receptor [2] it was 61 nM; on D(3) dopamine receptor [3] it was 1590 nM.

For `OC1(c2ccc(Br)cc2)CCN(Cc2c[nH]c3cccc(OCCF)c23)CC1`, the figures for the Ki on D(4) dopamine receptor [1] and at D(3) dopamine receptor [3] were 668 nM and 849 nM, respectively.

As for `OC1(c2ccccc2)CCN(Cc2cc3ccccc3s2)CC1`, the values for the Ki (in assay [9]; on D(2) dopamine receptor [2]; at D(3) dopamine receptor [3]) were 2.13 nM, 46.8 nM and 142 nM, respectively.

With `COc1ccc2[nH]cc(CN3CCC(O)(c4ccc(Br)cc4)CC3)c2c1`, the Ki turned out to be 2.5 nM at D(2) dopamine receptor [5], 700 nM at D(4) dopamine receptor [6] and 108 nM in assay [7].

With `COc1ccc2[nH]cc(CN3CCC(O)(c4ccccc4)CC3)c2c1`, the figures for the Ki on D(4) dopamine receptor [1], on D(2) dopamine receptor [2] and on D(3) dopamine receptor [3] were greater than 10000 nM, 1400 nM and 2930 nM, respectively.

As to `CSc1ccc(C2(O)CCN(Cc3c[nH]c4ncccc34)CC2)cc1`, the inhibition constant (Ki) on D(4) dopamine receptor [1] is 937 nM; on D(2) dopamine receptor [2], 254 nM; at D(3) dopamine receptor [3] it was 4940 nM.
